# Data taken from ChEMBL document CHEMBL1146257, “2,6-Quinolinyl derivatives as potent VLA-4 antagonists” (Bioorg Med Chem Lett, 2007).
# Legend:
# [1] = Inhibition of human recombinant VACM1 binding to VAL4 expressed in U937 cells by adhesion test; format: cell-based; settings: u-937
# U-937 = assay: Inhibition of human recombinant VACM1 binding to VAL4 expressed in U937 cells at 1 uM by adhesion test; format: cell-based
# [2] = Inhibition of T cell activation assessed as CD3-VACM interaction; format: functional, cell-based, Homo sapiens
# [3] = Oral bioavailability in monkey; format: ADME, organism-based, Macaca mulatta; settings: rhesus monkey, in vivo
# [4] = Inhibition of fibronectin binding to VAL4 expressed in Jurkat cells by adhesion test; format: cell-based, Homo sapiens
# [5] = molecular target: Integrin alpha-4/beta-1 (VLA-4) (Homo sapiens); assay: Inhibition of VCAM binding to integrin alpha4beta1 by human whole blood assay
# [6] = Oral bioavailability in mouse; format: ADME, organism-based; settings: in vivo
# [7] = Distribution coefficient, log D of the compound; format: physicochemical; settings: octanol/water
# [8] = Oral bioavailability in rat; format: ADME, organism-based; settings: in vivo
# [9] = Oral bioavailability in dog; format: ADME, organism-based, Canis lupus familiaris; settings: in vivo
# [10] = Solubility at pH 7.4; format: physicochemical; settings: buffer
IC50 [1],Structure (SMILES),further results
8.6 nM,O=C(NC(Cc1ccc2nc(-c3cc(Cl)nc(Cl)c3)ccc2c1)C(=O)O)c1c(Cl)cccc1Cl (stereo not drawn),–
15.3 nM,O=C(O)C(Cc1ccc2nc(-c3c(Cl)cccc3Cl)ccc2c1)NC(=O)[C@@H]1CCC(=O)N1Cc1ccccc1 (stereo partly drawn),–
3.5 nM,CS(=O)(=O)c1ccc(C(=O)NC(Cc2ccc3nc(-c4c(Cl)cccc4Cl)ccc3c2)C(=O)O)c(Cl)c1 (stereo not drawn),–
6.6 nM,O=C(O)C(Cc1ccc2nc(-c3c(Cl)cccc3Cl)ccc2c1)NC(=O)C1(c2ccc(Cl)cc2)CCCC1 (stereo not drawn),–
53.7 nM,COc1cccc(OC)c1C(=O)NC(Cc1ccc2nc(-c3c(Cl)cccc3Cl)ccc2c1)C(=O)O (stereo not drawn),–
7.3 nM,COc1ccc2ccccc2c1-c1ccc2cc(CC(NC(=O)c3c(Cl)cccc3Cl)C(=O)O)ccc2n1 (stereo not drawn),–
92 nM,O=C(NC(Cc1ccc2nc(-c3ccccc3C(F)(F)F)ccc2c1)C(=O)O)c1c(Cl)cccc1Cl (stereo not drawn),–
–,CS(=O)(=O)c1ccc(-c2ccc3cc(CC(NC(=O)c4c(Cl)cccc4Cl)C(=O)O)ccc3n2)cc1 (stereo not drawn),inhibition (U-937): 82%
3.9 nM,Cc1cccc(Cl)c1C(=O)NC(Cc1ccc2nc(-c3c(Cl)cccc3Cl)ccc2c1)C(=O)O (stereo not drawn),–
102 nM,Cc1cccc(C)c1-c1ccc2cc(CC(NC(=O)c3c(Cl)cccc3Cl)C(=O)O)ccc2n1 (stereo not drawn),–
7.9 nM,Cc1cc(Cl)c(C(=O)NC(Cc2ccc3nc(-c4c(Cl)cccc4Cl)ccc3c2)C(=O)O)c(Cl)n1 (stereo not drawn),–
3.9 nM,O=C(N[C@@H](Cc1ccc2nc(-c3c(Cl)cccc3Cl)ccc2c1)C(=O)O)c1c(Cl)cccc1Cl,IC50 [2]: 43 nM; bioavailability [3]: 23%; IC50 [4]: 1.6 nM; IC50 [5]: 95 nM; bioavailability [6]: 35%; logD [7]: 1.47; bioavailability [8]: 41%; bioavailability [9]: 59%; solubility [10]: 1.5 µg/mL
–,O=C(NC(Cc1ccc2nc(-c3nccs3)ccc2c1)C(=O)O)c1c(Cl)cccc1Cl (stereo not drawn),inhibition (U-937): 38%
208 nM,O=C(NC(Cc1ccc2nc(-c3cc(C(F)(F)F)ccc3Cl)ccc2c1)C(=O)O)c1c(Cl)cccc1Cl (stereo not drawn),–
37.2 nM,Cc1cccc(C)c1C(=O)NC(Cc1ccc2nc(-c3c(Cl)cccc3Cl)ccc2c1)C(=O)O (stereo not drawn),–
372 nM,O=C(NC(Cc1ccc2nc(-c3c(F)cccc3F)ccc2c1)C(=O)O)c1c(Cl)cccc1Cl (stereo not drawn),–
> 3200 nM,O=C(N[C@H](Cc1ccc2nc(-c3c(Cl)cccc3Cl)ccc2c1)C(=O)O)c1c(Cl)cccc1Cl,–
20 nM,COc1cccc(OC)c1-c1ccc2cc(CC(NC(=O)c3c(Cl)cccc3Cl)C(=O)O)ccc2n1 (stereo not drawn),–
7.8 nM,O=C(NC(Cc1ccc2nc(-c3c(Cl)cccc3Cl)ccc2c1)C(=O)O)c1c(Cl)cccc1Cl (stereo not drawn),–
381 nM,O=C(NC(Cc1ccc2nc(-c3ccncc3)ccc2c1)C(=O)O)c1c(Cl)cccc1Cl (stereo not drawn),–
6.5 nM,O=C(NC(Cc1ccc2nc(-c3c(Cl)cccc3[N+](=O)[O-])ccc2c1)C(=O)O)c1c(Cl)cccc1Cl (stereo not drawn),–
–,O=C(NC(Cc1ccc2nc(-c3ccccc3)ccc2c1)C(=O)O)c1c(Cl)cccc1Cl (stereo not drawn),inhibition (U-937): 24%
18 nM,COc1cccc(OC)c1-c1ccc(C[C@H](NC(=O)c2c(Cl)cccc2Cl)C(=O)O)cc1,IC50 [2]: 99 nM
20 nM,O=C(NC(Cc1ccc2nc(-c3c(F)cccc3Cl)ccc2c1)C(=O)O)c1c(Cl)cccc1Cl (stereo not drawn),–
154 nM,O=C(NC(Cc1ccc2nc(-c3ccccc3Br)ccc2c1)C(=O)O)c1c(Cl)cccc1Cl (stereo not drawn),–
748 nM,O=C(NC(Cc1ccc2nc(-c3ccc(Cl)cc3Cl)ccc2c1)C(=O)O)c1c(Cl)cccc1Cl (stereo not drawn),–
435 nM,O=C(NC(Cc1ccc2nc(-c3c(Cl)cccc3Cl)ccc2c1)C(=O)O)c1c(F)cccc1F (stereo not drawn),–
5640 nM,O=C(NC(Cc1ccc2nc(-c3c(Cl)cccc3Cl)ccc2c1)C(=O)O)c1ccccc1 (stereo not drawn),–
